Reference: patent US5968952A, “Farnesyl transferase inhibiting 2-quinolone derivatives” (Janssen Pharmaceutica, N.V., priority 1995, dated 1999)

Key:
[1] = molecular target: T1, Human farnesyl protein transferase (Homo sapiens, UniProt P49354+P49356); experiment: In Vitro Assay for Inhibition of Farnesyl Protein Transferase ([3H] Scintillation Proximity Assay); format: biochemical; details: Table 7; human enzyme from KHOS cells; biotinylated lamin B peptide substrate; 60 min, 37° C.; read-out: IC50 (concentration of test compound producing 50% inhibition of enzyme activity)
T1 construct: were used as a source of human enzyme; endogenous in cells; host or cells: Kirsten virus transformed human osteosarcoma (KHOS) cells (ATCC), grown as monolayers or as solid tumors in nude mice; ammonium sulfate fraction and Q Sepharose pool
Method: In Vitro Assay for Inhibition of Farnesyl Protein Transferase Human farnesyl protein transferase was prepared essentially as described ([…] al., Methods: A Companion to Methods in Enzymology vol 1, 241-245, 1990). Kirsten virus transformed human osteosarcoma (KHOS) cells (American Type Culture Collection, Rockvill, Md., USA) grown as solid tumors in nude mice or grown as monolayer cell cultures were used as a source of human enzyme. Briefly, cells or tumors were homogenized in buffer containing 50 mM Tris, 1 mM EDTA, 1 mM EGTA and 0.2 mM phenylmethylsulfonylfluoride (pH 7.5). The homogenates were centrifuged 28,000× g for 60 min and the supernatants collected. A 30-50% ammonium sulfate […] prepared, and the resulting precipitate was resuspended in a small (10 to 20 ml) volume of dialysis buffer containing 20 mM Tris, 1 mM dithiothreitol and 20 μM ZnCl2. The ammonium sulfate fraction was dialyzed overnight against two changes of the same buffer. The dialyzed material was applied to a 10×1 cm Q Fast Flow Sepharose (Pharmacia LKB Biotechnology Inc., Piscataway, N.J., USA) which had been preequilibrated with 100 ml of dialysis buffer supplemented with 0.05M NaCl. The column was washed with an additional 50 ml of dialysis buffer plus 0.05M NaCl followed by a gradient from 0.05M to 0.25M NaCl prepared in dialysis buffer. The enzyme activity was eluted with a linear gradient of 0.25 to 1.0M NaCl prepared in the dialysis buffer. Fractions containing 4 to 5 ml volumes of column eluate were collected and analyzed for farnesyl protein transferase activity. Fractions with enzyme activity were pooled and supplemented with 100 μM ZnCl2. Enzyme samples were stored frozen at -70° C. The activity of farnesyl protein transferase was measured using the Farnesyl Transferase [^3 H] Scintillation Proximity Assay (Amersham International plc., England) under the conditions specified by the manufacturer. […] The reaction mixture was warmed to 37° C. The enzyme reaction was started by adding 20 μl of diluted human farnesyl protein transferase. […] Reactions were terminated by the addition of STOP/scintillation proximity bead reagent (Amersham). The reaction product [^3 H]-farnesyl-(Cys)-biotin lamin B peptide was captured on the streptavidin linked scintillation proximity bead. The amount of [^3 H]-farnesyl-(Cys)-biotin lamin B peptide synthesized in the presence or absence of test compounds was quantified as cpm by counting on a Wallac Model 1480 Microbeta Liquid Scintillation Counter. The cpm of product was considered to be farnesyl protein transferase activity. The protein farnesyl transferase activity observed in the presence of test compound was normalized to farnesyl transferase activity in the presence of 10% DMSO and expressed as per cent inhibition. […] W. Johnson Pharmaceutical Research Institue (Spring House, Pa., USA) on a VAX computer.

[2] = system: NIH 3T3 cells transformed by the T24 activated human H-ras gene; experiment: Ras-Transformed Cell Phenotype Reversion Assay; format: cell-based, mouse; details: NIH3T3; Table 8; T24 H-ras transformed NIH 3T3 cells; 72 hours; cell counts
From the text: "Ras-Transformed Cell Phenotype Reversion Assay" Insertion of activated oncogenes such as the mutant ras gene into mouse NIH 3T3 cells converts the cells to a transformed phenotype. The cells become tumorigenic, display anchorage independent growth in semi-solid medium and lose contact inhibition. Loss of contact inhibition produces cell cultures which no longer form uniform monolayers. Rather, the cells pile up into multicellular nodules and grow to very high saturation densities in plastic tissue culture dishes. Agents such as protein farnesyl transferase inhibitors which revert the ras transformed phenotype restore the uniform monolayer growth pattern to cells in culture. This reversion is easily monitored by counting the number of cells in tissue culture plates. Transformed cells will achieve higher cell numbers than cells which have reverted to an untransformed phenotype. Compounds which revert the transformed phenotype should produce antitumor effects in tumors bearing ras gene mutations. Method Compounds are screened in tissue culture in NIH 3T3 cells transformed by the T24 activated human H-ras gene. Cells are seeded at an initial density of 200,000 cells per well (9.6 cm^2 surface area) in six-well cluster tissue culture plates. Test compounds are immediately added to 3.0 ml cell growth mediuim in a 3.0 μl volume of DMSO, with a final concentration of DMSO in the cell growth medium of 0.1%. […] Then the cells are detached in 1.0 ml trypsin-EDTA cell dissociation medium and counted on a Coulter particle counter. Measurements Cell numbers expressed as cells per well are measured using a Coulter Particle Counter. All cell counts were corrected for the initial cell input density by subtracting 200,000. Control cell counts=[cell counts from cells incubated with DMSO vehicle--200,000] Test compound cell counts=[cell counts from cells incubated with test compound--200,000]. [formula]

Row | SMILES | IC50 [1] | IC50 [2]
1 | O=c1cc(-c2ccccc2)c2cc(C(c3ccc(Cl)cc3Cl)n3ccnc3)ccc2[nH]1 (centres unmarked) [Compound 31] | 480 nM | –
2 | CCOC(=O)Cn1c(=O)cc(-c2ccccc2)c2cc(C(c3ccc(Cl)cc3)n3ccnc3)ccc21 (centres unmarked) [Compound 17] | 230 nM | –
3 | CN(C)CCn1c(=O)cc(-c2cccc(Cl)c2)c2cc(C(c3ccc(Cl)cc3)n3ccnc3)ccc21 (centres unmarked) [Compound 80] | – | 169 nM
4 | COCC(c1ccc(Cl)cc1)(c1ccc2c(c1)c(-c1cccc(Cl)c1)cc(=O)n2C)n1ccnc1 (centres unmarked) [Compound 67] | – | 114 nM
5 | O=c1cc(-c2ccc(Cl)cc2)c2cc(C(c3ccc(Cl)cc3)n3ccnc3)ccc2[nH]1 (centres unmarked) [Compound 11] | 320 nM | –
6 | O=c1cc(-c2cccc(F)c2)c2cc(C(c3ccc(Cl)cc3)n3ccnc3)ccc2[nH]1 (centres unmarked) [Compound 21] | 150 nM | –
7 | Cc1ccc(C(c2ccc3[nH]c(=O)cc(-c4ccccc4)c3c2)n2ccnc2)cc1 (centres unmarked) [Compound 25] | 262 nM | –
8 | O=c1cc(-c2ccccc2)c2cc(C(c3ccccc3)n3ccnc3)ccc2[nH]1 (racemic) [Compound 1, (±)-6-[(1H-imidazol-1-yl)phenylmethyl]-4-phenyl-2(1H)-quinolinone] | 930 nM | –
9 | Cn1c(=O)cc(-c2cccc(Cl)c2)c2cc(C(c3ccc(Cl)cc3)n3ccnc3)ccc21 (centres unmarked) [Compound 15, 4-(3-chlorophenyl)-6-[(4-chlorophenyl)-1H-imidazol-1-ylmethyl]-1-methyl-2(1H)-quinolinone] | 16 nM | –
10 | CSCC(c1ccc(Cl)cc1)(c1ccc2c(c1)c(-c1cccc(Cl)c1)cc(=O)n2C)n1ccnc1 (centres unmarked) [Compound 69] | – | 500 nM
11 | O=c1cc(-c2ccccc2)c2cc(C(c3ccc(F)cc3)n3ccnc3)ccc2[nH]1 (centres unmarked) [Compound 4] | 315 nM | –
12 | Cc1cncn1C(c1ccc(Cl)cc1)c1ccc2[nH]c(=O)cc(-c3cccc(Cl)c3)c2c1 (centres unmarked) [Compound 53] | 32 nM | –
13 | CCCOc1cccc(-c2cc(=O)n(C)c3ccc(C(c4ccc(Cl)cc4)n4ccnc4)cc23)c1 (racemic) [Compound 74, (±)-6-[(4-chlorophenyl)-1H-imidazol-1-ylmethyl]-1-methyl-4-(3-propoxyphenyl)-2(1H)-quinolinone ethanedioate (2:3).sesquihydrate] | – | 500 nM
14 | O=c1cc(-c2cc(Cl)cc(Cl)c2)c2cc(C(c3ccc(Cl)cc3)n3ccnc3)ccc2[nH]1 (centres unmarked) [Compound 37] | 96 nM | –
15 | CC(c1ccc(Cl)cc1)(c1ccc2[nH]c(=O)cc(-c3ccccc3)c2c1)n1ccnc1 (centres unmarked) [Compound 58] | 270 nM | –
16 | O=c1cc(-c2ccc(Cl)c(Cl)c2)c2cc(C(c3ccc(Cl)cc3)n3ccnc3)ccc2[nH]1 (centres unmarked) [Compound 26] | 227 nM | –
17 | CCCC(c1ccc(Cl)cc1)(c1ccc2c(c1)c(-c1cccc(Cl)c1)cc(=O)n2C)n1ccnc1 (centres unmarked) [Compound 65] | 51 nM | –
18 | Cn1c(=O)cc(-c2ccccc2)c2cc(C(c3ccc(Cl)cc3)n3ccnc3)ccc21 (racemic) [Compound 8, (±)-6-[(4-chlorophenyl)-1H-imidazol-1-yl-methyl]-1-methyl-4-phenyl-2(1H)-quinolinone] | 70 nM | –
19 | O=C1CC(c2ccccc2)c2cc(C(c3ccc(Cl)cc3)n3ccnc3)ccc2N1 (racemic) [Compound 57, (±)-6-[(4-chlorophenyl)-1H-imidazol-1-ylmethyl]-3,4-dihydro-4-phenyl-2(1H)-quinolinone] | 1200 nM | –
20 | O=c1cc(-c2ccccc2)c2cc(C(c3ccc(Cl)cc3)n3ccnc3)ccc2[nH]1 (centres unmarked) [Compound 2] | 180 nM | –
21 | O=c1cc(-c2ccccc2)c2cc(C(c3ccccc3Cl)n3ccnc3)ccc2[nH]1 (centres unmarked) [Compound 32] | 530 nM | –
22 | O=c1cc(-c2ccccc2Cl)c2cc(C(c3ccc(Cl)cc3)n3ccnc3)ccc2[nH]1 (centres unmarked) [Compound 12] | 3200 nM | –
23 | Cc1cccc(-c2cc(=O)[nH]c3ccc(C(c4ccc(Cl)cc4)n4ccnc4)cc23)c1 (centres unmarked) [Compound 18] | 40 nM | –

Further compounds by falling IC50 [1], results first:

Row | IC50 [1] | SMILES | IC50 [2]
24 | 2400 nM | COc1ccc(CCn2c(=O)cc(-c3ccccc3)c3cc(C(c4ccc(Cl)cc4)n4ccnc4)ccc32)cc1 (centres unmarked) [Compound 29] | –
25 | 2200 nM | Cc1ccccc1-c1cc(=O)[nH]c2ccc(C(c3ccc(Cl)cc3)n3ccnc3)cc12 (centres unmarked) [Compound 28] | –
26 | 1400 nM | O=c1cc(-c2ccccc2)c2cc(C(c3cccc(Cl)c3)n3ccnc3)ccc2[nH]1 (centres unmarked) [Compound 3] | –
27 | 850 nM | COc1ccc(C(c2ccc3[nH]c(=O)cc(-c4ccccc4)c3c2)n2ccnc2)cc1 (centres unmarked) [Compound 33] | –
28 | 700 nM | CCCn1c(=O)cc(-c2ccccc2)c2cc(C(c3ccc(Cl)cc3)n3ccnc3)ccc21 (centres unmarked) [Compound 14] | –
29 | 600 nM | O=c1cc(-c2ccccc2)c2cc(C(c3ccc(Cl)c(Cl)c3)n3ccnc3)ccc2[nH]1 (centres unmarked) [Compound 34] | –
30 | 300 nM | Cc1cncn1C(c1ccc(Cl)cc1)c1ccc2[nH]c(=O)cc(-c3ccccc3)c2c1 (centres unmarked) [Compound 49] | –
31 | 240 nM | O=c1cc(-c2cccc(C(F)(F)F)c2)c2cc(C(c3ccc(Cl)cc3)n3ccnc3)ccc2[nH]1 (centres unmarked) [Compound 20] | –
32 | 220 nM | O=c1cc(-c2ccccc2)c2cc(C(c3ccc(Cl)cc3)n3ccnc3)ccc2n1Cc1ccccc1 (centres unmarked) [Compound 10] | –
33 | 193 nM | Cc1ccc(-c2cc(=O)[nH]c3ccc(C(c4ccc(Cl)cc4)n4ccnc4)cc23)cc1 (centres unmarked) [Compound 27] | –
34 | 110 nM | Oc1cc(-c2ccccc2)c2cc(C(c3ccc(Cl)cc3)n3ccnc3)ccc2n1 (single isomer, unassigned; (-)) [Compound 7, (-)-(B)-6-[(4-chlorophenyl)-1H-imidazol-1-ylmethyl]-4-phenyl-2(1H)-quinolinone] | –
35 | 105 nM | O=c1cc(-c2ccccc2)c2cc(C(c3ccc(Cl)cc3)n3cnc(-c4ccccc4)c3)ccc2[nH]1 (centres unmarked) [Compound 47] | –
36 | 47 nM | COC(=O)C(CC(C)C)NC(=O)Cn1c(=O)cc(-c2ccccc2)c2cc(C(c3ccc(Cl)cc3)n3ccnc3)ccc21 (racemic) [Compound 39] | –
37 | 34 nM | O=c1cc(-c2cccc(Cl)c2)c2cc(C(c3ccc(Cl)cc3)n3ccnc3)ccc2[nH]1 (centres unmarked) [Compound 13, 4-(3-chlorophenyl)-6-[(4-chlorophenyl)-1H-imidazol-1-ylmethyl]-2(1H)-quinolinone] | –
38 | 32 nM | COc1cccc(-c2cc(=O)[nH]c3ccc(C(c4ccc(Cl)cc4)n4ccnc4)cc23)c1 (centres unmarked) [Compound 24] | –
39 | 22 nM | Cn1c(=O)cc(-c2cccc(Cl)c2)c2cc(C(C)(c3ccc(Cl)cc3)n3ccnc3)ccc21 (racemic) [Compound 62, (±)-4-(3-chlorophenyl)-6-[1-(4-chlorophenyl)-1-(1H-imidazol-1-yl)ethyl]-1-methyl-2(1H)-quinolinone] | –
40 | 21 nM | O=c1cc(-c2cccc(Br)c2)c2cc(C(c3ccc(Cl)cc3)n3ccnc3)ccc2[nH]1 (centres unmarked) [Compound 30] | –
41 | 13 nM | Cn1c(=O)cc(-c2ccccc2)c2cc(C(CO)(c3ccc(Cl)cc3)n3ccnc3)ccc21 (racemic) [Compound 59, (±)-6-[1-(4-chlorophenyl)-2-hydroxy-1-(1H-imidazol-1-yl)ethyl]-1-methyl-4-phenyl-2(1H)-quinolinone monohydrate] | –
